Assays:
[1] = system: PZR Y241 and Y263 phosphorylation; assay: Shp2 mutant-induced PZR tyrosyl phosphorylation in HEK-293 cells, immunoblot; type: cell-based; conditions: HEK-293 cells transfected with Shp2 mutants; 5 μM SU6656
[2] = system: PZR Y241 and Y263 phosphorylation; assay: Shp2E76A-induced PZR tyrosyl phosphorylation in NIH 3T3 cells, immunoblot; type: cell-based; conditions: cells expressing activated Shp2 (Shp2-E76A)

SMILES	NS and NSML Shp2 mutant-induced PZR hypertyrosyl phosphorylation [1]	concentration at which Shp2-E76A-induced PZR hyper tyrosyl phosphorylation was inhibited [2]
CN(C)S(=O)(=O)c1ccc2c(c1)/C(=C/c1cc3c([nH]1)CCCC3)C(=O)N2 [SU6656]	can be inhibited	1 µM
CC(C)(C)n1nc(-c2ccc(Cl)cc2)c2c(N)ncnc21 [PP2]		5 µM
